# Earlier results in patent publication US11089780B2, “Pendimethanlin microcapsules with a shell made of tetramethylxylylene diisocyanate and a polyamine with at least three amine groups” (BASF SE, priority 2015, dated 2021).
# Conditions: at 25° C.
smiles,measurement,value
"CCC(CC)Nc1c([N+](=O)[O-])cc(C)c(C)c1[N+](=O)[O-] [Pendimethalin, 3,4-dimethyl-2,6-dinitro-N-pentan-3-yl-aniline]",Vapor pressure,about 2 mPa
